Reference: patent US20250042942A1, “PEPTIDE HAVING PHYSIOLOGICAL ACTIVITIES AND USE THEREOF” (CAREGEN CO., LTD., priority 2021, published 2025)
Peptide text beside a SMILES is read from it.

System: mouse RAW264.7 cell line
Assay: Cytotoxicity, CCK-8 assay
Format: cell-based
Conditions: peptide 10, 30, 30, 100, and 150 μg/ml, 3 days, CCK-8, FIG. 10B
Protocol: The effect of the peptide of the present invention on cell proliferation was confirmed using CCK-8 assay. CCK-8 reagent is reduced by cellular dehydrogenase to produce a colored product, and the proliferation of cells may be confirmed through a difference in absorbance using this.
After removing the medium, CCK-8 solution (Dojindo, CCK-8 kit) was diluted 10 times in the culture medium and treated at 100 μl each. During incubation at 37° C., absorbance at a wavelength of 450 nm was measured using a microplate reader at 30-minute intervals.

CC[C@H](C)[C@H](NC(=O)[C@H](C)NC(=O)[C@@H](N)CC(N)=O)C(=O)N[C@@H](CO)C(=O)N[C@H](C(=O)N[C@@H](CC(C)C)C(=O)N[C@@H](Cc1ccc(O)cc1)C(=O)N[C@@H](Cc1ccccc1)C(=O)N[C@@H](CC(=O)O)C(=O)N[C@@H](CC(=O)O)C(=O)N[C@@H](CO)C(=O)O)C(C)C [SEQ ID NO: 1, NAISVLYFDDS] (H-NAISVLYFDDS-OH) was tested, and the “toxicity to mouse macrophages” value was “not toxic”.
